11 compounds from ChEMBL document CHEMBL1201862, “PubChem BioAssay data set” (2004) can be followed below.

The structures appear in SMILES notation.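 Following 48 hours of exposure in 96-well plates, responses at five concentrations were used to interpolate endpoints linearly. The concentration for 50% growth inhibition is given as GI50.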 Active and inactive are the calls of the source. Rule as the data show it: active = GI50 up to about 1.1 µM and inactive = higher.

What all share (assay): NCI tumour cell line growth inhibition, 48 h
Assay [1] relates to EKVX.
Assay [2] relates to IGROV-1.
For assay [3], the system named is UACC-62.
Assay [4] deals with M14.
Assay [5] has as its system A549.
The test system of assay [6] is SK-MEL-28.
The subject of assay [7] is OVCAR-5.
Assay [8] relates to HOP-92.
The subject of assay [9] is UO-31.
In assay [10] the test system is Malme-3M.
Assay [11] concerns Hs-578T.
Assay [12] deals with SNB-19.
Assay [13] deals with HT-29.
Assay [14] relates to RXF 393.
The subject of assay [15] is KM12.
Assay [16] relates to SF-295.
The test system of assay [17] is NCI-H23.
The test system of assay [18] is T47D.
The test system of assay [19] is DU-145.
In assay [20] the test system is PC-3.

Regarding `COc1ccc(C(c2cc3c(cc2O)OCO3)N2CCOCC2)cc1OC` (stereo not given), the GI50 in assay [1] is 19.1 µM (inactive); in assay [2], 14.9 µM (inactive); in assay [3], 5.75 µM (inactive); in [4] it was 12.4 µM (inactive); in assay [5], 22.4 µM (inactive); in assay [6], 17.5 µM (inactive). Moreover, the GI50 in assay [7] is 9.95 µM (inactive); in [8] it was 16 µM (inactive); in assay [9] it was 11.1 µM (inactive); in assay [10], 13.1 µM (inactive); in assay [11], 2.75 µM (inactive); in [12] it was 16.7 µM (inactive). In addition, the GI50 in assay [13] was 12.9 µM (inactive); in [14], 18.8 µM (inactive); in assay [15], 12.4 µM (inactive); in [16], 14.2 µM (inactive); in [17], 4.15 µM (inactive); in [18], 16.9 µM (inactive). The GI50 was 12.1 µM (inactive) in assay [19] and 11.1 µM (inactive) in assay [20].
As to `Cc1cc2nc3c(C)c4ccccc4c(C)n3c2cc1C`, the GI50 in assay [1] was 5 µM (inactive); in assay [2], 2.05 µM (inactive); in [3], 4.14 µM (inactive); in assay [4], 2.61 µM (inactive); in assay [5], 3.9 µM (inactive); in assay [6], 3.27 µM (inactive). Moreover, the GI50 was 2.48 µM (inactive) in [7]; 2.09 µM (inactive) in [8]; 1.98 µM (inactive) in assay [10]; 5.56 µM (inactive) in assay [11]; 4.02 µM (inactive) in assay [12]; 2.2 µM (inactive) in assay [13]. For the same compound, the GI50 in assay [14] was 2.84 µM (inactive); in assay [15], 3.34 µM (inactive); in assay [16] it was 2.59 µM (inactive); in assay [17] it was 2.67 µM (inactive); in assay [18], > 10 µM (inactive); in assay [19], 3.3 µM (inactive). The GI50 in assay [20] is 2.96 µM (inactive).
For `NC(CCOCCP(=O)(O)CCC1C=CC=CC1)C(=O)O` (stereo not given), the GI50 in assay [1] is > 100 µM (inactive); in assay [2], > 100 µM (inactive); in assay [3], 43.8 µM (inactive); in assay [4], > 100 µM (inactive); in [5], > 100 µM (inactive); in assay [6] it was > 100 µM (inactive). In addition, the GI50 in [7], in assay [8], in assay [9], in [11], in assay [12] and in [13] was > 100 µM (inactive) throughout. Moreover, the GI50 is > 100 µM (inactive) in assay [14]; > 100 µM (inactive) in assay [15]; > 100 µM (inactive) in assay [16]; > 100 µM (inactive) in assay [17]; 43.3 µM (inactive) in [18]; > 100 µM (inactive) in assay [19]. Also, the GI50 in [20] was > 100 µM (inactive).
For `CC(C)(CCCCC(C)(C)NC1=NCCO1)NC1=NCCO1`, the GI50 in [1], in [2], in [3], in [4], in assay [5] and in assay [6] was > 10 µM (inactive) in each case. Besides, the GI50 in assay [7], in assay [9], in assay [10], in [11], in [12] and in assay [13] was > 10 µM (inactive) in each case. Further, the GI50 in assay [14], in [15], in assay [16], in assay [17], in [18] and in assay [19] was > 10 µM (inactive) each time. Moreover, the GI50 in assay [20] was > 10 µM (inactive).
As to `O=C1C(=CNC(=S)c2ccccc2)C(=O)c2ccccc21`, the GI50 in assay [1] was 60.8 µM (inactive); in [2] it was 29.4 µM (inactive); in assay [3], 28.8 µM (inactive); in [4], 65.6 µM (inactive); in assay [5], 67.5 µM (inactive); in assay [6] it was > 100 µM (inactive). In addition, the GI50 in [7] is > 100 µM (inactive); in assay [8], 40.7 µM (inactive); in assay [9], 25.8 µM (inactive); in [11] it was 54 µM (inactive); in [12] it was 93.8 µM (inactive); in assay [13] it was > 100 µM (inactive). For the same compound, the GI50 in assay [14] is 46.7 µM (inactive); in assay [15] it was 62.1 µM (inactive); in [16], 91 µM (inactive); in assay [17], 51.5 µM (inactive); in [18], 60.1 µM (inactive); in [19] it was 57.8 µM (inactive). In addition, the GI50 in [20] is 63.2 µM (inactive).
For `O=C1CC2(CCC(O)(c3ccco3)C(C(=O)c3ccco3)C2)C(=O)c2ccccc2N1` (stereo not given), the GI50 is > 100 µM (inactive) in assay [1]; 99.1 µM (inactive) in [2]; > 100 µM (inactive) in [3]; 99.5 µM (inactive) in assay [4]; > 100 µM (inactive) in assay [5]; > 100 µM (inactive) in assay [7]. The GI50 is 56.9 µM (inactive) in assay [8]; 24.7 µM (inactive) in assay [9]; > 100 µM (inactive) in assay [10]; 55.1 µM (inactive) in assay [11]; > 100 µM (inactive) in [13]; > 100 µM (inactive) in assay [14]. In addition, the GI50 in assay [16] was > 100 µM (inactive); in assay [17], > 100 µM (inactive); in assay [18], 26.1 µM (inactive); in assay [19], > 100 µM (inactive); in assay [20], 54 µM (inactive).
In the case of `CC(=O)O[C@H]1[C@@H](OC(C)=O)C(C)(C)/C=C/[C@H](C)C(=O)[C@@]2(OC(C)=O)C[C@@](C)(OC(C)=O)[C@H](OC(C)=O)[C@@H]2[C@H]2OC(=O)CC[C@@]2(OC(=O)c2ccccc2)[C@@H]1OCC(C)C`, the GI50 in assay [1] was 87.9 µM (inactive); in assay [2] it was 68.5 µM (inactive); in assay [3], 46.5 µM (inactive); in assay [4], 15.6 µM (inactive); in assay [7] it was > 100 µM (inactive); in assay [8] it was 0.977 µM (active). For the same compound, the GI50 is 22.2 µM (inactive) in assay [9]; 22.9 µM (inactive) in [10]; 11.2 µM (inactive) in assay [11]; > 100 µM (inactive) in assay [12]; 13.5 µM (inactive) in assay [13]; 46.7 µM (inactive) in assay [14]. The GI50 in assay [15] is 39.1 µM (inactive); in [16], 3.63 µM (inactive); in assay [17] it was 38.7 µM (inactive); in [18] it was 58.5 µM (inactive); in assay [19], 97.3 µM (inactive); in assay [20], 17.5 µM (inactive).
With `O=C1C=CC2(O[C@@H](Cc3ccccc3)[C@H](Cc3ccccc3)O2)C(SC(=O)c2ccccc2)C1` (stereo not given in full), the GI50 is 1.26 µM (inactive) in assay [2]; 2.24 µM (inactive) in assay [3]; 1.45 µM (inactive) in assay [4]; 4.22 µM (inactive) in [5]; 1.81 µM (inactive) in [6]; 0.439 µM (active) in assay [7]. For the same compound, the GI50 in assay [8] was 1.54 µM (inactive); in assay [9], 0.586 µM (active); in assay [10] it was 2.07 µM (inactive); in assay [11] it was 1.38 µM (inactive); in assay [12], 1.94 µM (inactive); in assay [13] it was 1.64 µM (inactive). For the same compound, the GI50 was 0.0849 µM (active) in [14]; 2.31 µM (inactive) in assay [15]; 1.95 µM (inactive) in assay [16]; 1.69 µM (inactive) in assay [17]; 0.764 µM (active) in assay [18]; 2.39 µM (inactive) in assay [19]. In assay [20], the GI50 is 1.53 µM (inactive).
In the case of `CC(=O)NC1CC(C(C)(C)NC(C)=O)CC=C1C` (stereo not given), the GI50 in assay [1], in assay [2], in [3], in [4], in [5] and in assay [6] was > 100 µM (inactive) in each case. For the same compound, the GI50 in assay [7], in [8], in [9], in assay [12], in assay [13] and in [15] was > 100 µM (inactive) each time. For the same compound, the GI50 in [16], in [17], in assay [18], in assay [19] and in assay [20] was > 100 µM (inactive) in each case.
As to `O=C1N[C@@H]([C@H](CCCCCO)OC(=O)c2ccccc2)CO1`, the GI50 in [1], in assay [2], in assay [3], in [5], in assay [6] and in assay [7] was > 100 µM (inactive) throughout. The GI50 in assay [8], in [9], in assay [11], in [12], in assay [13] and in [14] was > 100 µM (inactive) in each case. The GI50 in assay [15], in assay [16], in assay [18], in [19] and in [20] was > 100 µM (inactive) each time.
In the case of `Cn1c(=O)nc2n(-c3ccc(Cl)cc3Cl)c3ccccc3nc-2c1=O`, the GI50 was 5.27 µM (inactive) in assay [1]; 12.8 µM (inactive) in assay [2]; 2.04 µM (inactive) in assay [3]; 1.76 µM (inactive) in assay [4]; 1.62 µM (inactive) in assay [5]; 11.4 µM (inactive) in [6]. The GI50 in [7] was 33.8 µM (inactive); in [8] it was 7.21 µM (inactive); in assay [9], 12 µM (inactive); in assay [10] it was 1.24 µM (inactive); in assay [12], 13.7 µM (inactive); in [13], 2.53 µM (inactive). The GI50 in assay [14] is 3.96 µM (inactive); in [15], 3.96 µM (inactive); in assay [16], 2.33 µM (inactive); in [17], 3.27 µM (inactive).
